Drawing on patent US20090221573A1, “Use of Activators of Soluble Guanylate Cyclase for Promoting Wound Healing” (Bayer HealthCare AG, priority 2005, published 2009), this text covers IC50 for three compounds.

SMILES strings stand for the structures. Like-named read-outs stand apart in the source and are kept apart here.

The test system of the assay is smooth muscle cells of the human coronary artery. The assay can be described thus: Inhibition of the horizontal migration of smooth muscle cells (wounded monolayer). It counts as cell-based. Conditions: read-out: Inhibition of the horizontal migration of smooth muscle cells of the human coronary artery, IC50. As to the method: Smooth muscle cells of the human coronary artery are seeded in a 6-well plate (1.5×10^5 cells/well) (Clonetics) and cultured in SmGM2 medium (Clonetics) for 48 h. Before the plates are used, the wells are coated with vitronectin (50 ng/cm^2; Gibco BRL). Half of the confluent cell monolayer is removed with the aid of a cell scraper (wounding). In the cell-free region, the vitronectin coating is at least 50% retained in this case. For the test, unless mentioned otherwise, the culture medium is replaced by MCDB-131/0.2% BSA (Gibco/BRL) medium. The test substances are added in various concentrations, and the migration distance in the cell-free region is followed with the aid of a microscope over 24 h and 48 h. Each measurement point represents the average of four measured regions. PDGF, as potent chemotactic factor for SMC, is used as positive control (1 nM, 10 nM, R&D systems). The RGD tripeptide (Bachem) is employed to inhibit the integrin-induced migration. To determine the antagonistic activity of the test substances, the cells are stimulated in the presence of the substance with 1 nM or 10 nM PDGF, and the migration distances are determined in relation to the PDGF-induced migration distances.

Turning to `COC(=O)N(C)c1c(N)nc(-c2nn(Cc3ccccc3F)c3ncccc23)nc1N` [IV], the IC50 (incubation time 48 h) stood at 10 nM.

`COC(=O)Nc1c(N)nc(-c2nn(Cc3ccccc3F)c3ncccc23)nc1N` [IVa]: the IC50 (48 h) turned out to be 30 nM.

Consider `O=C(O)CCCCN(CCc1ccccc1OCc1ccc(CCc2ccccc2)cc1)Cc1ccc(C(=O)O)cc1` [Compound I], for which the IC50 (48 h) turned out to be 5 nM.
